Read-outs that look alike come from different tables or passages of the source.
Target: T1, Human Cav3.1 calcium channel (Homo sapiens, UniProt O43497)
T1 construct: expressed in transfected cells; host or cells: HEK-293 natClytin/TASK1+Cav3.1 cell line
Assay: Human Cav3.1 calcium channel patch clamp assay (SyncroPatch 384PE; single point and IC50, voltage dependent block)
Format: cell-based
Conditions: for % Inhibition (Single Point Data): patch clamp
Description: Certain compounds (as indicated) were tested for Human Cav3.1 calcium channel activity via a patch clamp assay as disclosed herein.
Pulse generation and data collection were performed with PatchController384 V1.3.0 and DataController384 V1.2.1 (Nanion Technologies). Offline analysis was performed using Excel and Graphpad Prism (V 8.4.2) with complete data files uploaded to Dotmatics. The access resistance and apparent membrane capacitance were estimated using built-in protocols. Current was recorded in whole cell configuration from a population of cells. The cells were lifted, triturated, and resuspended at 800,000 cells/ml. The cells were allowed to recover in the cell hotel prior to experimentation. Currents were recorded at room temperature. The external solution contained the following (in mM): NaCl 80, NMDG 60, KCl 4, MgCl2 1, CaCl2 6, glucose 5 and HEPES 10 (pH=7.4, Osmolarity˜300 mOsm). The extracellular solution was used as the wash, reference and compound delivery solution.
The compound plate was created at 2× concentrated in the extracellular solution. The compound was diluted to 1:2 when added to the recording well. The amount of DMSO in the extracellular solution was held constant at the level used for the highest tested concentration. For the voltage clamp experiments on Cav3.1, data were sampled at 10 KHz. After establishment of the seal and the passage in the whole cell configuration, the cells were held at −120 mV. Cav3.1 current was evoked using a 100 ms step to −20 mV (to measure resting state block), followed by a 1600 ms step to −65 mV and a second 100 ms step to −20 mV (to measure voltage dependent block). The voltage protocol was applied every 15 seconds in the absence and in the presence of the compounds under investigation. […] Current amplitude (pA) was measured in the peak 1 and 2. The average of last 3 sweeps of each liquid period (vehicle, compound under investigation, full block) was calculated. Nickel-sensitive current was used to calculate the % of inhibition in the presence of the compound under investigation.

[1] = Testing Conc 1.25, HEK-293 natClytin/TASK1+Cav3.1 cell line
[2] = voltage dependent block (VDB), HEK-293 natClytin/TASK1+Cav3.1 cell line, read-out: Cav3.1 IC50
[3] = Testing Conc 1, HEK-293 natClytin/TASK1+Cav3.1 cell line

T1 sequence (O43497 whole entry): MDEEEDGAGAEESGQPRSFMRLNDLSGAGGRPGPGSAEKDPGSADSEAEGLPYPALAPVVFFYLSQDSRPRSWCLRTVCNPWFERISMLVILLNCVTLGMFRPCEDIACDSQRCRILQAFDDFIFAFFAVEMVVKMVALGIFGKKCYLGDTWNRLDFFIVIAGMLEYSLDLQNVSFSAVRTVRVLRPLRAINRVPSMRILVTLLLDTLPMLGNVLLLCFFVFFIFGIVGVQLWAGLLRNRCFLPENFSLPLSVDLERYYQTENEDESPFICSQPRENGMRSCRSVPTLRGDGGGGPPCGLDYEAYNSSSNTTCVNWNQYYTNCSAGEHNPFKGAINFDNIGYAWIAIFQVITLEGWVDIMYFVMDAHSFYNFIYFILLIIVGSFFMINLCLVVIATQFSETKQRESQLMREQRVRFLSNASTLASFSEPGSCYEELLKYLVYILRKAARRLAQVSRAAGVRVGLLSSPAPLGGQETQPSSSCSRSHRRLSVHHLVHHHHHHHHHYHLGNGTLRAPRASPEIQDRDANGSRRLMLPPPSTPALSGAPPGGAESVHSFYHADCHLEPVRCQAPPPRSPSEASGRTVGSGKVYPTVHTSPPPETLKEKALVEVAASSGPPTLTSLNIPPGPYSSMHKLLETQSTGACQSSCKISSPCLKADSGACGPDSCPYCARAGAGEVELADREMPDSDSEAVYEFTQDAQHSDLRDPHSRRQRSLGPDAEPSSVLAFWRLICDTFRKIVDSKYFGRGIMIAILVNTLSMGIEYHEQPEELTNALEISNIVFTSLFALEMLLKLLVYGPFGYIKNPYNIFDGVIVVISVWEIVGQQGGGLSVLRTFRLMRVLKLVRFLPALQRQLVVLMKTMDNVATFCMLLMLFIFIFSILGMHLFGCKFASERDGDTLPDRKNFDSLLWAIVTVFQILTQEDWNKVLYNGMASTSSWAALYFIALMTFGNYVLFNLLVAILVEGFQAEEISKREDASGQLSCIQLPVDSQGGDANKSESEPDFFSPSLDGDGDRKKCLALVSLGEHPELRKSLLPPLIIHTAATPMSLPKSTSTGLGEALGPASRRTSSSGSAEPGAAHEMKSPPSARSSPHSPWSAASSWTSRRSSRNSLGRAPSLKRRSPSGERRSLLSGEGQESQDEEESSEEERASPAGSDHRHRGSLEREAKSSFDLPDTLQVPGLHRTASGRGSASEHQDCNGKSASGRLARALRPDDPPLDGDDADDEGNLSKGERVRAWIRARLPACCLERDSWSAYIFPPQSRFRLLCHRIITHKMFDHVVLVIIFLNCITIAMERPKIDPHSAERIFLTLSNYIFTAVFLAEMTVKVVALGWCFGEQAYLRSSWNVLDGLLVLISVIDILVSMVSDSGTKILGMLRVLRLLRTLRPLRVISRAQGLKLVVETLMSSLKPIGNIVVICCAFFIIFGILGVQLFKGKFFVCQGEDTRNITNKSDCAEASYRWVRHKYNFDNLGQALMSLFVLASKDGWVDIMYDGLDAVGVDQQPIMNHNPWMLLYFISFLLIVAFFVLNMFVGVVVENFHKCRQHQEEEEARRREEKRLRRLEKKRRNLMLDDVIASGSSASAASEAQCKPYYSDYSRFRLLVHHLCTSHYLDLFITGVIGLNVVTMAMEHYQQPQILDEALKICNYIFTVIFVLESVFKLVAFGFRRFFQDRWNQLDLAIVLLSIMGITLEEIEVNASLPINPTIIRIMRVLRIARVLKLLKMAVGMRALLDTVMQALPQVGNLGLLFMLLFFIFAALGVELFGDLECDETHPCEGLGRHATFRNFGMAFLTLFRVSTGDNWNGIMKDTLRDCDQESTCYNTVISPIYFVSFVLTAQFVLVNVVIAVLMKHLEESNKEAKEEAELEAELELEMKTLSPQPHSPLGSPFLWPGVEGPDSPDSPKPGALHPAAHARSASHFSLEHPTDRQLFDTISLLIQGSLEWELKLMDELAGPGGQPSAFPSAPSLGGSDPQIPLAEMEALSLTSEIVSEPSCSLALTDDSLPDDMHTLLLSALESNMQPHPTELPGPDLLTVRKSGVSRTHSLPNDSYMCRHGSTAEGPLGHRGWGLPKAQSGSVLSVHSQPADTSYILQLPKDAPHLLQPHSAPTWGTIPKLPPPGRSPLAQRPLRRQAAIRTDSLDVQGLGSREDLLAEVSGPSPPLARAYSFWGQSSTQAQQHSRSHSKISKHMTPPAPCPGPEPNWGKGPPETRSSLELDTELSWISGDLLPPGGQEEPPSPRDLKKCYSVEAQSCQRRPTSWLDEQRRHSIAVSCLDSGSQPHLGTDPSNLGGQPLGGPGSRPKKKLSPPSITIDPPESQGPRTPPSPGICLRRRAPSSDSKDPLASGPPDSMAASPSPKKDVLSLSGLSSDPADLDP

% Inhibition (Single Point Data) [3] [%] | Compound | % Inhibition (Single Point Data) [1] [%] | IC50 [2] [nM] | IC50 [nM]
 | CC(C)(C)NC(=O)CN1C2CC1CN(CC(=O)Nc1cc(F)cc(Cl)c1)C2 [Compound 10] | 83.732 | 143 | 
 | Fc1cc(Cl)c2nc(CN3CC4CCC(C3)N4CCC3CCCC3)[nH]c2c1 [Compound 84] | 101 |  | 
 | CC(C)(C)NC(=O)CN1C2CCC1CN(Cc1nc(-c3ccccc3)c[nH]1)C2 [Compound 196] | 83.677 |  | 
 | CC(C)(C)NC(=O)CN1C2CC1CN(CC(=O)Nc1cc(F)c(F)c(Cl)c1)C2 [Compound 350] |  | < 78.2 | 
 | COc1ccc(F)c2[nH]c(CN3CC4CC(C3)N4CC(=O)NC(C)(C)C(F)(F)F)nc12 [Compound 183] | 95.323 |  | 87.4
 | C[C@H](NC(=O)CN1CC2CC(C1)N2CC(=O)NC(C)(C)C)C12CC3CC(CC(C3)C1)C2 [Compound 325] | 22.59 | 2600 | 
 | CC(C)(C)NC(=O)CN1C[C@H]2COC[C@@H](C1)[C@@H]2CNC(=O)c1cc(F)cc(Cl)c1 [Compound 369] |  | 499 | 
 | Fc1cc(Cl)c2nc(CN3CC4CCC(C3)N4CCN3CCC(F)(F)CC3)[nH]c2c1 [Compound 90] | 99.043 |  | 
 | CC(C)(C)NC(=O)CN1C2CCC1CN(CC(=O)NC13CC4CC(CC(C4)C1)C3)C2 [Compound 7] | 64.635 | 904 | 
 | CC(C)(CCN1C2CC1CN(Cc1nc3c(Cl)cc(F)cc3[nH]1)C2)C(F)(F)F [Compound 172] | 94.964 |  | 
 | Cc1cc(CNC(=O)CN2CC3CC(C2)N3CC(=O)NC(C)(C)C)nn1-c1ccccc1 [Compound 273] | 6.1482 |  | 
 | CC(C)(C)NC(=O)CN1C[C@@H]2C[C@H]1CN2CC(=O)Nc1cc(F)c(F)c(OC(F)F)c1 [Compound 356] |  | 74 | 
 | O=C(CN1C2CC1CN(Cc1nc3c(Cl)ccc(F)c3[nH]1)C2)NC1(C(F)(F)F)COC1 [Compound 180] | 82.621 |  | 
 | CC1(S(=O)(=O)NCCN2C3CC2CN(Cc2nc4c(Cl)cc(F)cc4[nH]2)C3)CC1 [Compound 142] | 84.115 | 223 | 
 | CC(C)(C)NC(=O)CN1C[C@H]2COC[C@@H](C1)[C@H]2CNC(=O)c1cc(F)cc(Cl)c1 [Compound 370] |  | 1740 | 
 | CC(C)(C)NC(=O)CN1C[C@H]2C[C@@H]1CN2CC(=O)Nc1cc(F)cc(Cl)c1 [Compound 59] | 49.275 | 925 | 
 | CC(C)(C)NC(=O)CN1C2CC1CN(CC(=O)NC1CCCC(OC(F)F)C1)C2 (stereo not drawn) [Compound 321] | 66.321 | 819 | 
 | O=C(CN1CC2CC1CN2CCNC(=O)C1(C(F)(F)F)CC1)Nc1ccc(F)c(Cl)c1 (stereo not drawn) [Compound 18] | 83.021 | 337 | 
 | COc1ccc(Cl)c2nc(CN3CC4CC(C3)N4CC(=O)NC(C)(C)C)[nH]c12 [Compound 206] | 95.576 | 156 | 
 | CC1(C)CCN(C(=O)CN2C3CCC2CN(Cc2nc4c(Cl)cc(F)cc4[nH]2)C3)C1 [Compound 93] | 93.884 | 284 | 
 | Fc1cc(Cl)c2nc(CN3CC4CC(C3)N4CCC3(F)CCCC3)[nH]c2c1 [Compound 113] | 94.677 |  | 
 | CN(C(=O)CN1C2CC1CN(Cc1nc3c(Cl)cc(F)cc3[nH]1)C2)C1(C)CCC1 [Compound 100] | 88.827 |  | 
 | O=C(CN1CC2CC(C1)N2CC(=O)NC1(C(F)(F)F)CC1)Nc1ccc(F)c(C(F)(F)F)c1 [Compound 251] | 80.59 |  | 
 | O=C(CN1CC2CC1CN2CCNC(=O)C1(C(F)(F)F)CCC1)Nc1ccc(F)c(Cl)c1 (stereo not drawn) [Compound 19] | 84.472 | 251 | 
 | CC(C(=O)Nc1ccc(F)c(Cl)c1)N1CC2CC(C1)N2CC(=O)NC(C)(C)C (stereo not drawn) [Compound 29] | 90.315 | 342 | 
 | COc1cc(NC(=O)CN2C[C@@H]3C[C@H]2CN3CC(=O)NC2(C(F)(F)F)CC2)ccc1F [Compound 311] | 83.804 | 385 | 
45.763 | CC(C)(C)NC(=O)CN1CCCN(CC(=O)Nc2cc(F)cc(Cl)c2)C(=O)C1 [Compound 36] |  |  | 

% Inhibition (Single Point Data) [3] [%] | Compound | % Inhibition (Single Point Data) [1] [%] | IC50 [2] [nM] | IC50 [nM]
 | CC(C)(C)NC(=O)CN1CC[C@@H](CNc2nccc3ccc(Cl)cc23)CC1=O [Compound 46] |  | 600 | 
 | CC(C)(C)NC(=O)CN1C2CC1CN(CC(=O)NC13CCC(CC1)C3)C2 [Compound 308] | 33.02 | 1930 | 
 | CC(C(=O)NC(C)(C)C)N1C2CC1CN(CC(=O)Nc1ccc(F)c(OC(F)F)c1)C2 (stereo not drawn) [Compound 254] | 93.503 | 115 | 
 | CC(C)(C)NC(=O)CN1CC[C@H](CNc2nccc3ccc(Cl)cc23)CC1=O [Compound 45] | 58.802 |  | 
 | COc1cc(Cl)cc(NC(=O)CN2C[C@@H]3C[C@H]2CN3CC(=O)NC(C)(C)C)c1 [Compound 282] | 98.739 | 74.8 | 
 | O=C(CN1CC2CC(C1)N2CC(=O)NC1(C(F)(F)F)CC1)Nc1ccc(F)c(OC(F)(F)F)c1 [Compound 243] | 93.979 | 137 | 
 | CC(c1nc2c(Cl)cc(F)cc2[nH]1)N1CC2CC(C1)N2CC(=O)NC(C)(C)C (stereo not drawn) [Compound 200] | 93.175 |  | 
 | CC(C)(C)NC(=O)CN1C2CC1CN(c1nc3c(Cl)cc(F)cc3[nH]1)C2 [Compound 209] | 24.65 | 5090 | 
 | O=C(CN1CC2CC(C1)N2CC(=O)NC1(C(F)(F)F)CC1)Nc1ccc(F)c(Cl)c1 [Compound 240] | 80.113 | 329 | 
 | O=C1CCCCN1CCN1C2CCC1CN(Cc1nc3c(Cl)cc(F)cc3[nH]1)C2 [Compound 97] | 79.865 | 367 | 
17.386 | Cn1nc(NC(=O)CN2CCN(CC(=O)NC(C)(C)C)CC2)c2ccccc21 [Compound 40] |  |  | 
 | O[C@H]1CC[C@@H](OCCN2C3CC2CN(Cc2nc4c(Cl)cc(F)cc4[nH]2)C3)CC1 [Compound 132] | 6.2687 | 5900 | 
 | Cc1ccc(F)c2[nH]c(CN3CC4CC(C3)N4CC(=O)NC(C)(C)C)nc12 [Compound 207] | 97.657 | 121 | 
 | CC(C)(C)NC(=O)CN1CC2CCC1CCN2Cc1nc2c(Cl)cc(F)cc2[nH]1 (stereo not drawn) [Compound 74] | 72.584 | 575 | 
 | COc1cc(NC(=O)CN2C[C@@H]3C[C@H]2CN3CC(=O)NC(C)(C)C)ccc1Cl [Compound 337] | 95.366 | < 78.2 | 
 | CC(C)(C)NC(=O)CN1CCCN(Cc2nc3c(Cl)cc(F)cc3[nH]2)CC1 [Compound 70] | 87.175 | 545 | 
 | CC(C)(NC(=O)CN1CC2CC1CN2CC(=O)Nc1cc(F)cc(Cl)c1)C(F)(F)F (stereo not drawn) [Compound 47] | 89.371 | 33.7 | 
 | CC1(C)CC(CN2C3CC2CN(Cc2nc4c(Cl)cc(F)cc4[nH]2)C3)CCO1 (stereo not drawn) [Compound 112] | 82.988 |  | 
 | O=C(CN1CC2CC1CN2CC(=O)NC1(C(F)(F)F)CC1)Nc1ccc(F)c(Cl)c1 (stereo not drawn) [Compound 238] | 79.048 |  | 
 | CC(C)(C)NC(=O)CN1C[C@H]2C[C@@H]1CN2CC(=O)Nc1ccc(F)c(OC(F)F)c1 [Compound 246] | 49.246 | 1070 | 
 | CC(C)(C)NC(=O)CN1C[C@@H]2C[C@H]1CN2CCNc1nccc2ccc(Cl)cc12 [Compound 60] | 60.189 | 605 | 
 | CC(C)(CO)NC(=O)CN1C2CCC1CN(Cc1nc3c(Cl)cc(F)cc3[nH]1)C2 [Compound 79] | 100 |  | 
 | Cc1cccc2[nH]c(CN3CC4CC(C3)N4CCC3CCOCC3)nc12 [Compound 204] | 3.6634 |  | 
 | COc1cc(Cl)cc(NC(=O)CN2CC3CC(C2)N3CC(=O)NC(C)(C)C)c1 [Compound 284] | 103.09 |  | 
 | CC(C(=O)Nc1ccc(F)c(OC(F)F)c1)N1CC2CC(C1)N2CC(=O)NC1(C(F)(F)F)CC1 (stereo not drawn) [Compound 255] | 66.406 | 431 | 
 | CC(C)(C)NC(=O)CN1C[C@@H]2C[C@H]1CN2CC(=O)Nc1ccc(F)c(OC(F)F)c1 [Compound 247] | 97.344 |  | 
 | CC(C)(C)NC(=O)CN1C2CCC1CN(Cc1nc3c(Cl)cccc3[nH]1)C2 [Compound 189] | 92.283 |  | < 78.2

Source: US20250213558A1, “T-TYPE CALCIUM CHANNEL MODULATORS COMPRISING A PIPERAZINE OR 1,4-DIAZEPANE CORE AND METHODS OF USE THEREOF” (Praxis Precision Medicines, Inc., priority 2022, published 2025)
